Assay results published in ChEMBL document CHEMBL1201862, “PubChem BioAssay data set” (2004).
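These data come from cells grown in 96-well plates and exposed to compound for 48 hours at five concentrations. Abbreviation: GI50, concentration required for 50% inhibition of growth.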 The source made the active and inactive calls. Cut-off read from the data, not from the text of the source: active = GI50 up to about 1.1 µM and inactive = higher.

Assays:
Experiment in all cases: NCI tumour cell line growth inhibition, 48 h
786-0 = tested on: 786-0
CCRF-CEM = tested on: CCRF-CEM
IGROV-1 = tested on: IGROV-1
K562 = tested on: K562
M14 = tested on: M14
MOLT-4 = tested on: MOLT-4
Malme-3M = tested on: Malme-3M
OVCAR-3 = tested on: OVCAR-3
OVCAR-4 = tested on: OVCAR-4
SF-295 = tested on: SF-295
SF-539 = tested on: SF-539
SK-MEL-28 = tested on: SK-MEL-28
SNB-19 = tested on: SNB-19
SNB-75 = tested on: SNB-75
HOP-92 = tested on: HOP-92
UO-31 = tested on: UO-31

Row | Compound | GI50 (786-0) | GI50 (CCRF-CEM) | GI50 (IGROV-1) | GI50 (K562) | GI50 (M14) | GI50 (MOLT-4) | GI50 (Malme-3M) | GI50 (OVCAR-3) | GI50 (OVCAR-4) | GI50 (SF-295) | GI50 (SF-539) | GI50 (SK-MEL-28) | GI50 (SNB-19) | GI50 (SNB-75) | GI50 (HOP-92) | GI50 (UO-31)
1 | COc1cc(OC)c2ssc3c(OC)cc(OC)c4ssc1c2-c43 | > 100 µM (inactive) | > 100 µM (inactive) | > 100 µM (inactive) | > 100 µM (inactive) | > 100 µM (inactive) | > 100 µM (inactive) | > 100 µM (inactive) | > 100 µM (inactive) | > 100 µM (inactive) | > 100 µM (inactive) | > 100 µM (inactive) | > 100 µM (inactive) | > 100 µM (inactive) | 31.3 µM (inactive) |  | 
2 | CS/C(=N\c1ccc([N+](=O)[O-])cc1C#N)NC(=O)c1ccccc1 | > 100 µM (inactive) | > 100 µM (inactive) | > 100 µM (inactive) | > 100 µM (inactive) | > 100 µM (inactive) | 54.2 µM (inactive) | > 100 µM (inactive) | > 100 µM (inactive) | > 100 µM (inactive) | > 100 µM (inactive) | > 100 µM (inactive) | > 100 µM (inactive) | > 100 µM (inactive) | 28.4 µM (inactive) | 46 µM (inactive) | 
3 | CCCCCCCCCCCCCCCCNc1cccc2ccccc12 | > 100 µM (inactive) | > 100 µM (inactive) | > 100 µM (inactive) | > 100 µM (inactive) | > 100 µM (inactive) | > 100 µM (inactive) | > 100 µM (inactive) | > 100 µM (inactive) |  | > 100 µM (inactive) | > 100 µM (inactive) | > 100 µM (inactive) | > 100 µM (inactive) | > 100 µM (inactive) |  | > 100 µM (inactive)
4 | O=C1OC(c2ccccc2)=N/C1=C/NC(Cc1ccc(O)cc1)C(=O)O (stereo unspecified) | > 100 µM (inactive) | > 100 µM (inactive) |  | > 100 µM (inactive) | > 100 µM (inactive) |  | > 100 µM (inactive) | > 100 µM (inactive) | > 100 µM (inactive) | > 100 µM (inactive) | > 100 µM (inactive) | > 100 µM (inactive) | > 100 µM (inactive) | > 100 µM (inactive) | > 100 µM (inactive) | > 100 µM (inactive)
5 | NNc1cnn(-c2ccccc2)c(=O)c1Cl | > 100 µM (inactive) | > 100 µM (inactive) | > 100 µM (inactive) | > 100 µM (inactive) | > 100 µM (inactive) | > 100 µM (inactive) | > 100 µM (inactive) | > 100 µM (inactive) | > 100 µM (inactive) | > 100 µM (inactive) | > 100 µM (inactive) | > 100 µM (inactive) |  | > 100 µM (inactive) | > 100 µM (inactive) | > 100 µM (inactive)
6 | O=C(Nc1ccc(Cl)cc1Cl)C1C(=O)C(=O)N(c2ccc(Cl)cc2Cl)C1=O (stereo unspecified) | > 100 µM (inactive) |  | > 100 µM (inactive) |  | > 100 µM (inactive) |  | > 100 µM (inactive) | 38.5 µM (inactive) | > 100 µM (inactive) |  | > 100 µM (inactive) | > 100 µM (inactive) | > 100 µM (inactive) | > 100 µM (inactive) |  | > 100 µM (inactive)
7 | NC(=O)N=C(NCc1ccccc1)NCc1ccccc1 | > 100 µM (inactive) |  | > 100 µM (inactive) |  | > 100 µM (inactive) |  |  | > 100 µM (inactive) | > 100 µM (inactive) | > 100 µM (inactive) | > 100 µM (inactive) | > 100 µM (inactive) | > 100 µM (inactive) |  | 20 µM (inactive) | > 100 µM (inactive)
8 | CC(=O)N/C(=C\c1ccc(/C=C(\NC(C)=O)c2nc3cc(Cl)ccc3[nH]2)cc1)c1nc2ccccc2[nH]1 | > 100 µM (inactive) | > 100 µM (inactive) | > 100 µM (inactive) | > 100 µM (inactive) | > 100 µM (inactive) | > 100 µM (inactive) | > 100 µM (inactive) | > 100 µM (inactive) |  |  | > 100 µM (inactive) | > 100 µM (inactive) | > 100 µM (inactive) | > 100 µM (inactive) | > 100 µM (inactive) | 
9 | Fc1ccc(F)c(C2SCc3nc4ccccc4n32)c1 (stereo unspecified) | > 100 µM (inactive) | 47.6 µM (inactive) | > 100 µM (inactive) | 37.1 µM (inactive) | 72.1 µM (inactive) | 27.2 µM (inactive) | 57.1 µM (inactive) | 54.6 µM (inactive) | 95.7 µM (inactive) | 29.5 µM (inactive) | > 100 µM (inactive) |  | > 100 µM (inactive) | > 100 µM (inactive) | 28.5 µM (inactive) | 41.3 µM (inactive)
10 | CSc1ccc(/C=C2\CN(C)C/C(=C\c3ccc(SC)cc3)C2=O)cc1 | 54.1 µM (inactive) | 23.1 µM (inactive) | 32.6 µM (inactive) | 22.2 µM (inactive) | 92.3 µM (inactive) | 19.4 µM (inactive) | > 100 µM (inactive) | 13.8 µM (inactive) | > 100 µM (inactive) | 21.1 µM (inactive) | 20 µM (inactive) | > 100 µM (inactive) |  | 12.5 µM (inactive) | 4.23 µM (inactive) | > 100 µM (inactive)
11 | O=C(/C=N/O)Nc1ccc(Cl)c(I)c1 | 29.3 µM (inactive) | 26.7 µM (inactive) | 8.61 µM (inactive) | 24 µM (inactive) | 18.6 µM (inactive) | 19.6 µM (inactive) | 25.5 µM (inactive) | 13.6 µM (inactive) | 28.6 µM (inactive) | 29.5 µM (inactive) |  | 27.7 µM (inactive) | 23.9 µM (inactive) |  |  | 12.1 µM (inactive)
12 | C1=C(c2ccccc2)C(OC2Oc3ccccc3C=C2c2ccccc2)Oc2ccccc21 (stereo unspecified) | > 100 µM (inactive) | > 100 µM (inactive) | > 100 µM (inactive) | > 100 µM (inactive) | > 100 µM (inactive) | > 100 µM (inactive) | > 100 µM (inactive) | > 100 µM (inactive) |  | > 100 µM (inactive) |  | > 100 µM (inactive) | > 100 µM (inactive) | 24.6 µM (inactive) | > 100 µM (inactive) | > 100 µM (inactive)
13 | Nc1cn(C2OC(CC(c3ccccc3)(c3ccccc3)c3ccccc3)C(O)C2O)c(=O)[nH]c1=O (stereo unspecified) | 21.4 µM (inactive) | 23.3 µM (inactive) | 23.9 µM (inactive) | 23.4 µM (inactive) | 22.5 µM (inactive) | 20.4 µM (inactive) | 23.5 µM (inactive) | 14.5 µM (inactive) |  | 30.1 µM (inactive) |  | 29.3 µM (inactive) | 26.8 µM (inactive) | > 100 µM (inactive) | 12.7 µM (inactive) | 31.6 µM (inactive)
14 | CN(C)CC(C)(C)C(/C=C/c1ccccc1)=N\Nc1ccccc1 | 0.457 µM (active) | 0.367 µM (active) | 0.723 µM (active) | 0.238 µM (active) | 5.01 µM (inactive) | 0.451 µM (active) | 10.4 µM (inactive) | 1.44 µM (inactive) | 1.06 µM (active) | 0.131 µM (active) | 0.28 µM (active) | 1.89 µM (inactive) | 3.23 µM (inactive) | 14.6 µM (inactive) |  | 0.0836 µM (active)
15 | Fc1ccc(/N=C2C=C/C(=N\c3ccc(F)cc3)c3ccccc3\2)cc1 | > 100 µM (inactive) | > 100 µM (inactive) | > 100 µM (inactive) | > 100 µM (inactive) | > 100 µM (inactive) | > 100 µM (inactive) | > 100 µM (inactive) | > 100 µM (inactive) |  | 51.4 µM (inactive) | 54.1 µM (inactive) | > 100 µM (inactive) | 70.5 µM (inactive) | > 100 µM (inactive) | 19.4 µM (inactive) | > 100 µM (inactive)
16 | O=C(CC1(O)C(=O)Nc2ccc([N+](=O)[O-])cc21)c1ccc2ccccc2c1 (stereo unspecified) | > 100 µM (inactive) | > 100 µM (inactive) | > 100 µM (inactive) | > 100 µM (inactive) | > 100 µM (inactive) | > 100 µM (inactive) | > 100 µM (inactive) | > 100 µM (inactive) | > 100 µM (inactive) | > 100 µM (inactive) | > 100 µM (inactive) | > 100 µM (inactive) | > 100 µM (inactive) | > 100 µM (inactive) |  | > 100 µM (inactive)
17 | CCO/N=C(/N)c1ncn(Cc2ccccc2)c1NCC(OCC)OCC | > 100 µM (inactive) | > 100 µM (inactive) | > 100 µM (inactive) | > 100 µM (inactive) | > 100 µM (inactive) | > 100 µM (inactive) | > 100 µM (inactive) | > 100 µM (inactive) |  | > 100 µM (inactive) | > 100 µM (inactive) |  | > 100 µM (inactive) | > 100 µM (inactive) |  | > 100 µM (inactive)
18 | O=C(O)C(Cc1ccccc1)N1C(=O)N/C(=C\c2ccc(F)cc2)C1=O (stereo unspecified) | > 100 µM (inactive) | > 100 µM (inactive) | > 100 µM (inactive) | > 100 µM (inactive) | > 100 µM (inactive) | > 100 µM (inactive) |  |  | > 100 µM (inactive) | > 100 µM (inactive) | > 100 µM (inactive) |  |  | > 100 µM (inactive) | > 100 µM (inactive) | > 100 µM (inactive)
19 | CC1OC(=O)N2CCC=CC12 (stereo unspecified) | > 100 µM (inactive) | > 100 µM (inactive) | > 100 µM (inactive) | > 100 µM (inactive) |  | > 100 µM (inactive) | > 100 µM (inactive) | > 100 µM (inactive) | > 100 µM (inactive) | > 100 µM (inactive) | > 100 µM (inactive) | > 100 µM (inactive) | > 100 µM (inactive) | > 100 µM (inactive) |  | > 100 µM (inactive)
20 | COC(=O)C1C2C=CC(C2)N1[C@@H](C)c1ccccc1 (stereo partly specified) | > 100 µM (inactive) | > 100 µM (inactive) | > 100 µM (inactive) | > 100 µM (inactive) | > 100 µM (inactive) |  | > 100 µM (inactive) | > 100 µM (inactive) |  | > 100 µM (inactive) | > 100 µM (inactive) | > 100 µM (inactive) | > 100 µM (inactive) | > 100 µM (inactive) | > 100 µM (inactive) | > 100 µM (inactive)
